# In patent publication US6737397B1, “Control of cancer growth through the interaction of [MET5]-enkephalin and the zeta receptor” (The Penn State Research Foundation, priority 1996, dated 2004):
# Like-named read-outs stand apart in the source and are kept apart here. No end group written: not given here.
# What was measured:
# [1] = target: T1, ζ-opioid receptor (Homo sapiens, UniProt Q9NZT2); experiment: Competition for binding of [3H][Met5]enkephalin (4.0 nM) in nuclear homogenates of HT-29 human colon tumors; set-up: from tissue; host or cells: HT-29 human colon tumor xenografts grown in athymic nude mice; nuclear (P1) and other subcellular fractions
# T1 sequence (Q9NZT2 1-677): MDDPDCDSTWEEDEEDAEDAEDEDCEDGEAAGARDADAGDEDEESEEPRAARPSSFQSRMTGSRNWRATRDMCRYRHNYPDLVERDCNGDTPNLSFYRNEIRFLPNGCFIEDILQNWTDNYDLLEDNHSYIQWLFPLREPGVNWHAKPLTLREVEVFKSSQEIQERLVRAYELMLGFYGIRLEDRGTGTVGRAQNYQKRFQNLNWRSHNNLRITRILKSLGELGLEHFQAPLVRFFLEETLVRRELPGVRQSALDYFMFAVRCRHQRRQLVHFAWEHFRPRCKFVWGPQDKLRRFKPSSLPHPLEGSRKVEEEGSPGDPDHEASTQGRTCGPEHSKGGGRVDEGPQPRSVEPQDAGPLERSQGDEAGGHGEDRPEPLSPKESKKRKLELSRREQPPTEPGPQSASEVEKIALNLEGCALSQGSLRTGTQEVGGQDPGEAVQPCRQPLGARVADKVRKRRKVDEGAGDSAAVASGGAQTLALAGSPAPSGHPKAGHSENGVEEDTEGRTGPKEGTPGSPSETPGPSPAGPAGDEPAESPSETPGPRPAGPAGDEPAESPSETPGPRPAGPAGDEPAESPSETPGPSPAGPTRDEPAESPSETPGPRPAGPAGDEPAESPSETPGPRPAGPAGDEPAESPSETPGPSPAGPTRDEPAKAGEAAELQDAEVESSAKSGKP
# [2] = test system: WiDr cells; experiment: Growth assay (cell counts) of WiDr human colon cancer cells; format: cell-based
# Method: (§1) HT-29, WiDr, and COLO 205 cell lines were obtained from the American Type Culture Collection (Rockville, Md.). HT-29 cells were grown in McCoy's 5A media (modified), WiDr cells in Minimum Essential Media, and COLO 205 cells in RPMI 1640 media; all media contained 10% fetal calf serum, 2 mM […], 1.2% sodium bicarbonate and antibiotics (11 Units/ml penicillin, 10 μg/ml streptomycin, 10 μg/ml neomycin) in a humidified atmosphere of 7% CO2/93% air at 37° C. In some examples, cultures of HT-29 cells were maintained in McCoy's 5A media without fetal calf serum.
# (§2) Cells were seeded at equivalent amounts into 75 cm^2 flasks or into 9.6 cm^2 wells (6-well plates, Falcon) and were counted 24 hr later to determine plating efficiency. Drugs or sterile water were added beginning 24 hr after seeding (=0 hours) and both media and drugs were changed daily. All drugs were prepared in sterile water and dilutions represent final concentrations of the compounds. At appropriate times, cells were harvested with 0.05% trypsin/0.53 mM EDTA, centrifuged, and counted with a hemacytometer at 200×. Cell viability was determined by trypan blue staining. At least 2 aliquots/flask or well were counted and 2 flasks or wells/time point/treatment group were sampled.
# (§3) To examine the ubiquity of opioid activity with respect to colon cancer, two other colon cancer cell lines were investigated: COLO 205 and WiDr.
# [3] = test system: COLO 205 cells; experiment: Growth assay (cell counts) of COLO 205 human colon cancer cells; format: cell-based
# Method: as §1, §2, §3
# [4] = test system: HT-29 cells; experiment: Growth assay (cell counts) of HT-29 human colon cancer cells in culture; format: cell-based; conditions: 48 hr
# Method: In some examples, cultures of HT-29 cells were maintained in McCoy's 5A media without fetal calf serum.
# as §2
# [5] = test system: HT-29 human colon cancer cells; experiment: HT-29 human colon cancer xenografts in nude mice treated with OGF and/or naloxone
molecule,measurement,setting,value
"CSCC[C@H](NC(=O)[C@H](Cc1ccc(OS(=O)(=O)O)cc1)NC(=O)[C@@H](N)CC(=O)O)C(=O)NCC(=O)N[C@@H](Cc1c[nH]c2ccccc12)C(=O)N[C@@H](CCSC)C(=O)N[C@@H](CC(=O)O)C(=O)N[C@@H](Cc1ccccc1)C(N)=O [CCK-8, cholecystokinin octapeptide]",ability to compete in displacing [3H]-[Met5]-enkephalin binding,[1],exhibit ability to compete
"CC[C@]12CCN(CC3CC3)[C@H](C(=O)c3ccc(O)cc31)[C@@H]2C [EKC, ethylketocyclazocine]",IC50,[1],> 10000 µM
same,Ki,[1],> 10000 µM
same,ability to compete in displacing [3H]-[Met5]-enkephalin binding,[1],not competitive
CSCC[C@H](NC(=O)[C@H](Cc1c[nH]c2ccccc12)NC(=O)CNC(=O)[C@H](Cc1ccc(O)cc1)NC(=O)[C@H](C)NC(=O)[C@H](CCC(=O)O)NC(=O)[C@H](CCC(=O)O)NC(=O)[C@H](CCC(=O)O)NC(=O)[C@H](CCC(=O)O)NC(=O)[C@H](CCC(=O)O)NC(=O)[C@H](CC(C)C)NC(=O)[C@H](Cc1c[nH]c2ccccc12)NC(=O)[C@@H]1CCCN1C(=O)CNC(=O)[C@@H]1CCC(=O)N1)C(=O)N[C@@H](CC(=O)O)C(=O)N[C@@H](Cc1ccccc1)C(N)=O [Gastrin],IC50,[1],0.0775 ± 0.0075 µM
same,Ki,[1],0.0596 ± 0.0058 µM
C[C@H](N)C(=O)NCC(=O)N[C@H]1CSSC[C@@H](C(=O)O)NC(=O)[C@H](CO)NC(=O)[C@H]([C@@H](C)O)NC(=O)[C@H](Cc2ccccc2)NC(=O)[C@H]([C@@H](C)O)NC(=O)[C@H](CCCCN)NC(=O)[C@H](Cc2c[nH]c3ccccc23)NC(=O)[C@H](Cc2ccccc2)NC(=O)[C@H](Cc2ccccc2)NC(=O)[C@H](CC(N)=O)NC(=O)[C@H](CCCCN)NC1=O [Somatostatin],IC50,[1],> 10 µM
same,Ki,[1],> 10 µM
C=CCN1CC[C@]23c4c5ccc(O)c4O[C@H]2C(=O)CC[C@@]3(O)[C@H]1C5 [naloxone],"influence on growth, alone",[2]; 10^−6 M,no influence on growth
same,effect of naloxone on suppressive effects of [Met5]-enkephalin on growth,[2]; 10^−6 M each,eliminated
same,"influence on growth, alone",[3]; 10^−6 M,no influence on growth
same,effect of naloxone on suppressive effects of [Met5]-enkephalin on growth,[3]; 10^−6 M each,eliminated
same,effect of concomitant naloxone on [Met5]-enkephalin inhibition of cell number,[4]; 10^−6 M each,blocked the inhibitory effects
same,"effect on cell growth, alone",[4]; 10^−6 M,no effect on cell growth
same,"latencies of palpable, visible, or measurable tumors or incidence of cancer versus control mice","[5]; 5 mg/kg OGF with 10 mg/kg naloxone, or 10 mg/kg naloxone alone",No differences
same,"Latency for measurable tumor appearance, days, range",[5]; 10 mg/kg Nal daily,(10-16) days
same,Latency for palpable tumor,[5]; 10 mg/kg Nal daily,9.3 ± 1.4 days
same,Latency for visible tumor,[5]; 10 mg/kg Nal daily,10.3 ± 1.4 days
same,No. of mice with tumors 21 days after inoculation,[5]; 10 mg/kg Nal daily,4/5
same,No. of mice with tumors 50 days after inoculation,[5]; 10 mg/kg Nal daily,4/5
same,tumor volume,"[5]; 50 days after inoculation, 10 mg/kg naloxone alone","1,494±517 mm^3"
"CC[C@H](C)[C@H](NC(=O)[C@H](C)NC(=O)[C@H](CC(N)=O)NC(=O)[C@H](CCCCN)NC(=O)[C@H](Cc1ccccc1)NC(=O)[C@H](CC(C)C)NC(=O)[C@@H](NC(=O)[C@@H](NC(=O)[C@H](CC(C)C)NC(=O)[C@@H]1CCCN1C(=O)[C@@H](NC(=O)[C@H](CCC(N)=O)NC(=O)[C@H](CO)NC(=O)[C@H](CCCCN)NC(=O)[C@H](CCC(=O)O)NC(=O)[C@H](CO)NC(=O)[C@@H](NC(=O)[C@H](CCSC)NC(=O)[C@H](Cc1ccccc1)NC(=O)CNC(=O)CNC(=O)[C@@H](N)Cc1ccc(O)cc1)[C@@H](C)O)[C@@H](C)O)C(C)C)[C@@H](C)O)C(=O)N[C@H](C(=O)N[C@@H](CCCCN)C(=O)N[C@@H](CC(N)=O)C(=O)N[C@@H](C)C(=O)N[C@@H](Cc1ccc(O)cc1)C(=O)N[C@@H](CCCCN)C(=O)N[C@@H](CCCCN)C(=O)NCC(=O)N[C@@H](CCC(=O)O)C(=O)O)[C@@H](C)CC [β-Endorphin, β-endorphin]",less potent than [Met5]-enkephalin in displacing radiolabeled [Met5]-enkephalin binding,[1],4.3 fold
"SKF-10,047",ability to compete in displacing [3H]-[Met5]-enkephalin binding,[1],not competitive
same,IC50,[1]; read-out: IC50,0.795 ± 0.005 µM
same,Ki,[1]; read-out: KI,0.612 ± 0.004 µM
"YGGFMRGL [[Met^5]enkephalin-Arg^6-Gly^7-Leu^8, [Met^5,Arg^6,Gly^7,Leu^8]-enkephalin]",IC50,[1],0.0375 ± 0.0075 µM
same,Ki,[1],0.0289 ± 0.0058 µM
dynorphin A 1-8 [Dynorphin A-(1-8)],ability to compete in displacing [3H]-[Met5]-enkephalin binding,[1],not competitive
